Patent US9155795B2, “CXCR4 receptor compounds” (Anchor Therapeutics, Inc., priority 2010, dated 2015)
Where a SMILES comes first, the peptide text is derived from it. [ ]: non-standard residue; d: D form. The star is where a group is joined. Ala(3-Me-diazirin-3-yl) = CC1(C[C@H](N)C(=O)O)N=N1; Palmitoyl = CCCCCCCCCCCCCCCC(=O)*

What was measured:
male BALB/c mice = test: Mobilization of polymorphonuclear leukocytes (PMNs) in mice; format: in vivo; conditions: 6.66 μmol/kg subcutaneous, blood 3 hours after injection
Experimental: The effect of Compound 26 on mobilization of PMNs following subcutaneous administration was evaluated in mice. […] Louis, Mo.) was administered subcutaneously to 10 mice. […] Neutrophil and lymphocyte counts were determined using a Hemavet Model 950FS cell counter (Drew Scientific, Dallas, Tex.).

CXCR4 = target: T1, CXCR4 (Homo sapiens, UniProt P61073); test: Calcium flux assay, agonist mode, Flexstation (CCRF-CEM cells); format: cell-based; conditions: for Emax: CCRF-CEM, percent of maximum response compared with SDF-1α, read-out: % Intrinsic Activity
T1 construct: CCRF-CEM cells, a human T-cell ALL line that endogenously expresses CXCR4; endogenous in cells; host or cells: CCRF-CEM (human T-cell acute lymphoblastic leukemia line)
T1 sequence (P61073 whole entry): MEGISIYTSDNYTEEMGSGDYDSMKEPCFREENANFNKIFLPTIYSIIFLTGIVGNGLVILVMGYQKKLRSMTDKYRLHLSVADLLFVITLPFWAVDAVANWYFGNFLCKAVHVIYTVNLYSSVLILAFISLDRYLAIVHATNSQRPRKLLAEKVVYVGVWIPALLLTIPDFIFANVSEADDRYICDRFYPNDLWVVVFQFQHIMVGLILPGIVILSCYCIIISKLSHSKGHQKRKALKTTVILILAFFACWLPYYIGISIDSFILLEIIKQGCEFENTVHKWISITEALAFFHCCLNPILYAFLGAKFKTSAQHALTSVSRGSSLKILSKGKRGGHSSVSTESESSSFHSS
Source text: Calcium Flux Assay is one of the most popular cell-based GPCR functional assays. It most often uses calcium sensing fluorescent dyes such as fura2 AM, fluo-4 and Calcium-4 to measure changes in intracellular calcium concentration. It is used mainly to detect GPCR signaling via Gαq subunit. Activation of these Gq-coupled GPCRs leads to activation of phospholipase C, which subsequently leads to increase in inositol phosphate production. IP3 receptors on endoplasmic reticulum sense the change then release calcium into cytoplasm. Intracellular calcium binding to the fluorescent dyes can be detected by instruments that quantify fluorescent intensities, such as FLIPR Tetra, Flexstation (MDS) and FDSS (Hamamatsu). In addition, to assess Gq-couple receptor signaling, a calcium flux assay can also be used to study Gs and Gi couple receptors by co-expressing CNG (cyclic nucleotide gated calcium channel) or chimeric G-proteins (Gqi5, Gsi5 for example). Activation of some Gi-coupled receptors can also be detected by calcium flux assay via Gβγ mediated phospholipase C activation.
The calcium flux assay was used to assess the test compounds' ability to activate the CXCR4 receptor in CCRF-CEM cells (human T lymphoblasts from acute lymphoblastic leukemia). […] After dye loading by incubating with Calcium-4 dye at 37° C. for 1 hour, cell plates were read at 37° C. using the using the Flexstation 3 workstation. Receptor activation was assessed by measuring changes in fluorescent intensity after the addition of the test compounds or the reference agonist SDF-1α on the using the Flexstation 3 workstation. EC50
and percent intrinsic actively were derived from the data collected. Intrinsic activity refers to the efficacy of the test compound and is calculated as the percent of maximum response compared with the response of the reference standard (i.e., natural agonist, SDF-1α).

Compound	Emax (CXCR4) [%]	other results
c1cc(CN2CCCNCCNCCCNCC2)ccc1CN1CCCNCCNCCCNCC1 [AMD3100, reference compound]	–	Lymphocytes (×10^3 μl) Mean ± SD (male BALB/c mice): 8.76 ± 1.67 ×10^3 μl; PMNs (×10^3 μl) Mean ± SD (male BALB/c mice): 7.83 ± 3.20 ×10^3 μl
CCCCCCCCCCCCCCCC(=O)NCC(=O)NCC(=O)N[C@@H](Cc1ccc(O)cc1)C(=O)N[C@@H](CCC(N)=O)C(=O)N[C@@H](CCCCN)C(=O)N[C@@H](CCCCN)C(=O)N[C@@H](CC1(C)N=N1)C(=O)N[C@@H](CCCNC(=N)N)C(=O)N[C@@H](CO)C(=O)N[C@@H](C)C(=O)N[C@H](C(=O)N[C@@H](CC(=O)O)C(=O)N[C@@H](CCCCN)C(=O)N[C@@H](Cc1ccc(O)cc1)C(=O)N[C@@H](CCCNC(=N)N)C(=O)N[C@@H](CC(C)C)C(N)=O)[C@@H](C)O [Compound 37] (Palmitoyl-GGYQKK[Ala(3-Me-diazirin-3-yl)]RSATDKYRL-NH2; C-terminus assumed)	85.7	EC50 (CXCR4; calcium flux): 71.1 nM

Second part, led by results:

Emax (CXCR4) [%]	Compound	other results
86.8	CCCCCCCCCCCCCCCC(=O)NCC(=O)NCC(=O)N[C@@H](Cc1ccc(O)cc1)C(=O)N[C@@H](CCC(N)=O)C(=O)N[C@@H](CCCCN)C(=O)N[C@@H](CCCCN)C(=O)N[C@@H](Cc1c[nH]cn1)C(=O)N[C@@H](CCCNC(=N)N)C(=O)N[C@@H](CO)C(=O)N[C@@H](C)C(=O)N[C@H](C(=O)N[C@@H](CC(=O)O)C(=O)N[C@@H](CCCCN)C(=O)N[C@@H](Cc1ccc(O)cc1)C(=O)N[C@@H](CCCNC(=N)N)C(=O)N[C@@H](CC(C)C)C(N)=O)[C@@H](C)O [Compound 38] (Palmitoyl-GGYQKKHRSATDKYRL-NH2; C-terminus assumed)	–
104	CCCCCCCCCCCCCCCC(=O)NCC(=O)NCC(=O)N[C@@H](Cc1ccc(O)cc1)C(=O)N[C@@H](CCC(N)=O)C(=O)N[C@@H](CCCCN)C(=O)N[C@@H](CCCCN)C(=O)N[C@H](CC(C)C)C(=O)N[C@@H](CCCNC(=N)N)C(=O)N[C@@H](CO)C(=O)N[C@@H](C)C(=O)N[C@H](C(=O)N[C@@H](CC(=O)O)C(=O)N[C@@H](CCCCN)C(=O)N[C@@H](Cc1ccc(O)cc1)C(=O)N[C@@H](CCCNC(=N)N)C(=O)N[C@@H](CC(C)C)C(N)=O)[C@@H](C)O [Compound 39] (Palmitoyl-GGYQKK[dL]RSATDKYRL-NH2; C-terminus assumed)	–
78.7	CCCCCCCCCCCCCCCC(=O)NCC(=O)NCC(=O)N[C@@H](Cc1ccc(O)cc1)C(=O)N[C@@H](CCC(N)=O)C(=O)N[C@@H](CCCCN)C(=O)N[C@@H](CCCCN)C(=O)N[C@@H](CC(C)C)C(=O)N[C@@H](CCCNC(=N)N)C(=O)N[C@@H](CO)C(=O)N[C@@H](C)C(=O)N[C@H](C(=O)N[C@@H](CC(=O)O)C(=O)N[C@@H](CCCCN)C(=O)N[C@@H](Cc1ccc(O)cc1)C(=O)N[C@@H](CCCNC(=N)N)C(=O)N[C@@H](CC(C)C)C(=O)N[C@@H](Cc1c[nH]cn1)C(N)=O)[C@@H](C)O [Compound 40] (Palmitoyl-GGYQKKLRSATDKYRLH-NH2; C-terminus assumed)	–
149	CCCCCCCCCCCCCCCC(=O)NCC(=O)NCC(=O)N[C@@H](Cc1ccc(O)cc1)C(=O)N[C@@H](CCC(N)=O)C(=O)N[C@@H](CCCCN)C(=O)N[C@@H](CCCCN)C(=O)N[C@@H](CC(C)C)C(=O)N[C@@H](CCCNC(=N)N)C(=O)N[C@H](C(=O)N[C@@H](C)C(=O)N[C@H](C(=O)N[C@@H](CC(=O)O)C(=O)N[C@@H](CCCCN)C(=O)N[C@@H](Cc1ccc(O)cc1)C(=O)N[C@@H](CCCNC(=N)N)C(=O)N[C@@H](CC(C)C)C(N)=O)[C@@H](C)O)[C@@H](C)O [Compound 41] (Palmitoyl-GGYQKKLRTATDKYRL-NH2; C-terminus assumed)	–
